Assay: Gravimetric vapour sorption (GVS) analysis
Type: physicochemical
Details: sample of Example 6
Procedure: Measurements are performed on a multi-sample instrument SPS-100n (Projekt Messtechnik, Ulm, Germany), which is operated in stepping mode at 25° C. A sample of approximately 20 mg is equilibrated at 40% RH before starting a pre-defined humidity program of 40-0-95-0-95-40% RH with steps of 5% ARH and a maximum equilibration time of 24 h per step. The hygroscopic classification is done according to the European Pharmacopeia Technical Guide (1999, page 86), e.g., non-hygroscopic: increase in mass less than 0.2% mass/mass; slightly hygroscopic: increase in mass is less than 2% and equal to or greater than 0.2% mass/mass; hygroscopic: increase in mass is less than 15% and equal to or greater than 2% mass/mass. The mass change between 40% relative humidity and 80% relative humidity in the first adsorption scan is evaluated for this classification.

GVS change of the water content (between 0% and 95% RH, 25° C., almost linear, small hysteresis between ca. 50% and 85% RH): 2% | GVS maximum water content (corresponds to approximately 1 equivalent of water): 2%
Structure (SMILES): COc1noc(CCNC(=O)[C@@H]2CC(=O)N(C)[C@@H](CC(C)C)C(=O)N(C)[C@H](CC(F)(F)F)C(=O)N[C@H](Cc3ccccc3)COc3ccc4ncc(F)cc4c3C(=O)N2)n1 [form 1 of the COMPOUND, (3S,7S,10R,13R)-13-benzyl-20-fluoro-7-isobutyl-N-(2-(3-methoxy-1,2,4-oxadiazol-5-yl)ethyl)-6,9-dimethyl-1,5,8,11-tetraoxo-10-(2,2,2-trifluoroethyl)-1,2,3,4,5,6,7,8,9,10,11,12,13,14-tetradecahydro-[1]oxa[4,7,10,14]tetraazacycloheptadecino[16,17-f]quinoline-3-carboxamide]

Reference: US20260098045A1, “CRYSTALLINE FORM OF (3S,7S,10R,13R)-13-BENZYL-20-FLUORO-7-ISOBUTYL-N-(2-(3-METHOXY-1,2,4-OXADIAZOL-5-YL)ETHYL)-6,9-DIMETHYL-1,5,8,11-TETRAOXO-10-(2,2,2-TRIFLUOROETHYL)-1,2,3,4,5,6,7,8,9,10,11,12,13,14-TETRADECAHYDRO-[1]OXA[4,7,10,14]TETRAAZACYCLOHEPTADECINO[16,17-F]QUINOLINE-3-CARBOXAMIDE” (Idorsia Pharmaceuticals Ltd, priority 2022, published 2026)
